According to patent publication US20240424019A1, “SHP1 MODIFIED DENDRITIC CELLS AND EXTRACELLULAR VESICLES DERIVED THEREFROM AND ASSOCIATED METHODS” (BOARD OF REGENTS, THE UNIVERSITY OF TEXAS SYSTEM, priority 2021, published 2024):

Experiments:
B16-F10 melanoma = details: VitE and ICT combo-treatment
Method: For the melanoma tumor challenges, 2×10^5 B16-F10, B16-GMCSF, or B16-FLT3L cells were subcutaneously (s.c.) injected into the right flank of C57BL/6J mice on day 0.
Treatments were given as single agents or in combinations with the indicated regimens for each group. VitE (D-α-Tocopherol type VI, Cat.T1539, Sigma-Aldrich) was formulated in the vehicle (10% ethanol in sterile water) and administered by oral gavage once a day at a dose of 50 mg/kg body weight (100 μl at 10 mg/ml per day), corresponding to 400 to 600 mg/day in a human weighing 60 kg, which is within the range of doses recommended for supplement and pharmacological use. VitE treatment was initiated on day 4 ending until the ending point.
For tumor volume analysis, each tumor was measured every 3-4 days with a digital caliper beginning on day 7 after the challenge. Tumor volume was calculated using the formula V=(L×W^2)/2 and expressed as mm^3, where V is tumor volume, L is the length of the tumor (longer diameter) and W is the width of the tumor (shorter diameter). Mice were monitored for tumor growth and survival. Measurements were assessed manually by assessing the longest dimension (length, L) and the longest perpendicular dimension (width, W). Tumor volume was calculated using the formula: (L×W^2)/2.

purified SHP1 = purified SHP1 (Homo sapiens, UniProt P29350); assay: Microscale thermophoresis (MST) binding assay; details: mean of triplicates; read-out: apparent dissociation constant Kd
Method: FIG. 3A: Volcano plot of reverse phase protein array (RPPA) data of mouse BMDCs treated with VitE (50 μg/ml) compared to those treated with vehicle control with tumor conditioned media (TCM) for 48 hours (n=3 independent samples). […] The grey dashed line indicates P-value of 0.05. FIG. 3B: t-SNEs by CyTOF and quantification comparing the intensity of pY564-SHP1 in TADCs from the vehicle-or VitE-treated EMT6 tumors at day 15 post-implantation. FIG. 3C: Top, SHP1 knockdown in BMDCs was effective. Bottom, CFSE-dilution analysis of OT-1 T cells co-cultured with OVA protein-pulsed BMDCs (ratio 10:1) with knockdown of SHP1 by siPtpn6 versus siCtrl (n=3). Right, quantification of OT-1 T-cell numbers under the indicated condition. FIG. 3D: The binding of VitE to purified SHP1 is analyzed by microscale thermophoresis (MST) binding assay. […] FIG. 3E: Relative tyrosine phosphatase activity of SHP1 immunoprecipitated from LPS (100 ng/ml)-activated DC2.4 cells in the presence of indicated doses of VitE (mean of triplicates). FIG. 3F: SHP1 tyrosine phosphatase activity in LPS (100 ng/ml)-activated BMDCs (n=6) treated with vehicle-or VitE (50 μg/ml). Error bars, s.e.m. ns, no significant. *P<0.05, **P<0.01. ***P<0.001, ****P<0.0001. […]

Sequence of purified SHP1 (P29350 whole entry): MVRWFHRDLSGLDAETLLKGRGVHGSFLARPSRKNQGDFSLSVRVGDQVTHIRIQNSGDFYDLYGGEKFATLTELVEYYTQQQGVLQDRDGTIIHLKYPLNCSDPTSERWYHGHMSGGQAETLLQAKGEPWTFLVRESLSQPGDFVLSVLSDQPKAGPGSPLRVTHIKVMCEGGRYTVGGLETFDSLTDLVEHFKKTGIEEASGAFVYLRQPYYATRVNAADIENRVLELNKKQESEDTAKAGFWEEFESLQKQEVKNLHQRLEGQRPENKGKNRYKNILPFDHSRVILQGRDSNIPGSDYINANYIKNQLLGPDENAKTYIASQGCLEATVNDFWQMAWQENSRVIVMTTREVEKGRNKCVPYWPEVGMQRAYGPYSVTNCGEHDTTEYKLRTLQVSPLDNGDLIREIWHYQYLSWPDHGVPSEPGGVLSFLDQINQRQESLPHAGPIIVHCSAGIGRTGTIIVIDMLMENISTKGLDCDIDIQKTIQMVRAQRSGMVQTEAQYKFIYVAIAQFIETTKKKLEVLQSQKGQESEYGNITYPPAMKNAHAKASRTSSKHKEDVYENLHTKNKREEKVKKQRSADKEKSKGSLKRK

For `Cc1c(C)c2c(c(C)c1O)CC[C@@](C)(CCC[C@H](C)CCC[C@H](C)CCCC(C)C)O2` [VitE, D-α-Tocopherol], the therapeutic effect (B16-F10 melanoma) was “no therapeutic effect” and the Kd (purified SHP1) was 39 µM.
